This is an account of results in patent publication US9688691B2, “Macrocyclic quinazole derivatives and their use as MTKI” (Janssen Pharmaceutica NV, priority 2004, dated 2017).

The structures appear in SMILES notation.

Holding throughout (type): biochemical
Test [1] has as its target Fgr human (Homo sapiens, UniProt P09769). Kind of test: Kinase profiling, glass-fiber filter technology: Fgr. The conditions noted are these: test concentration of 10^−6 M; read-out: Fgr inhibition score. Here is the method: (§1) The in vitro inhibition of a panel of kinases was assessed using the glass-fiber filter technology as described by Davies, S. P. et al., Biochem J. (2000), 351; p. 95-105.
(§2) In the glass-fiber filter technology the activity of the kinase of interest is measured using an appropriate substrate that is incubated with the aforementioned kinase protein in the presence of (^33P) radiolabeled ATP. (^33P) Phosporylation of the substrate is subsequently measured as radioactivity bound on a glassfiber-filter.
(§3) All kinases are pre-diluted to a 10× working concentration prior to addition into the assay. The composition of the dilution buffer for each kinase is detailed below.
(§4) All substrates are dissolved and diluted to working stocks in de-ionised water.
(§5) In a final reaction volume of 25 μl, Fgr human (5-10 mU) is incubated with 8 mM MOPS pH 7.0, 0.2 mM EDTA, 0.1 mg/ml poly(Glu, Tyr) 4:1, 10 mM MgAcetate and [γ-^33P-ATP] (specific activity approx. 500 cpm/pmol, concentration as required). The reaction is initiated by the addition of the MgATP mix. After incubation for 40 minutes at room temperature, the reaction is stopped by the addition of 5 μl of a 3% phosphoric acid solution. 10 μl of the reaction is then spotted onto a Filtermat A and washed three times for 5 minutes in 75 mM phosphoric acid and once in methanol prior to drying and scintillation counting.

The target in test [2] is Ret human (Homo sapiens, UniProt P07949). Kind of test: Kinase profiling, glass-fiber filter technology: Ret. The conditions noted are these: test concentration of 10^−6 M; read-out: Ret inhibition score. Here is the method:
as §1, §2, §3, §4
as §5, with “Ret” for “Fgr”, “250 μM KKKSPGEYVNIEFG,” for “0.1 mg/ml poly(Glu, Tyr) 4:1,”, “P30 filtermat” for “Filtermat A”

The target of test [3] is Yes (h) (Homo sapiens, UniProt P07947). Briefly: Kinase profiling, glass-fiber filter technology: Yes. The conditions noted are these: test concentration of 10^−6 M; read-out: Yes inhibition score. Here is the method: as §1, §2, §3, §4
as §5, with “Yes (h)” for “Fgr human”

Test [4] deals with Flt1 human (Homo sapiens, UniProt P17948). Briefly: Kinase profiling, glass-fiber filter technology: Flt1. Particulars: test concentration of 10^−6 M; read-out: Flt1 inhibition score. Here is the method:
as §1, §2, §3, §4
as §5, with “Flt1” for “Fgr”, “250 μM KKKSPGEYVNIEFG,” for “0.1 mg/ml poly(Glu, Tyr) 4:1,”, “P30 filtermat” for “Filtermat A”

The target of test [5] is Blk (m) (Mus musculus, UniProt P16277). Briefly: Kinase profiling, glass-fiber filter technology: Blk. The conditions noted are these: test concentration of 10^−6 M; read-out: Blkl inhibition score. Here is the method: as §1, §2, §3, §4
as §5, with “Blk (m)” for “Fgr human”, “50” for “8”, “Tris” for “MOPS”, “7.5, 0.1” for “7.0, 0.2”, “EGTA, 0.1 mM Na3VO4, 0.1% β-mercaptoethanol,” for “EDTA,”, “[γ-33P-ATP]” for “[γ-^33P-ATP]”

Test [6] concerns the target ErbB4 (h) (Homo sapiens, UniProt Q15303). Briefly: Kinase profiling, glass-fiber filter technology: ErbB4. Particulars: test concentration of 10^−6 M; read-out: ErbB4 inhibition score. Here is the method: as §1, §2, §3, §4
as §5, with “ErbB4 (h)” for “Fgr human”, “EDTA, 10 mM MnCl2,” for “EDTA,”, “[γ-33P-ATP]” for “[γ-^33P-ATP]”

The target of test [7] is EGFR (h) (Homo sapiens, UniProt P00533). Kind of test: Kinase profiling, glass-fiber filter technology: EGFR. The conditions noted are these: test concentration of 10^−6 M; read-out: EGFR inhibition score. Here is the method:
as §1, §2, §3, §4
as §5, with “EGFR (h)” for “Fgr human”, “EDTA, 10 mM MnCl2,” for “EDTA,”

Blk (m), sequence (P16277 whole entry): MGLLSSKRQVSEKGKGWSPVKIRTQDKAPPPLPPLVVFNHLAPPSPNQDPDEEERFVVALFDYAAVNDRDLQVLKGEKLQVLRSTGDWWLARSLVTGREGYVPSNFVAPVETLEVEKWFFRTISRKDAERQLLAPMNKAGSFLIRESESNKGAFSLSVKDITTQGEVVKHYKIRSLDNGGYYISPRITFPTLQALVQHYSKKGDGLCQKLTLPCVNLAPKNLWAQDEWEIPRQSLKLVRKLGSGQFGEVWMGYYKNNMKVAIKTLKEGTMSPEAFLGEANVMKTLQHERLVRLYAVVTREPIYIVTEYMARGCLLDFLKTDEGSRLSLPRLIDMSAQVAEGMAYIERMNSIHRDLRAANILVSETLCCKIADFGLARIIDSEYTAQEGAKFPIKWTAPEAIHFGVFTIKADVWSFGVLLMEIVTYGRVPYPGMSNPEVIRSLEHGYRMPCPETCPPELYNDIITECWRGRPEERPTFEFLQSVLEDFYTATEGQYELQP
ErbB4 (h), sequence (Q15303 26-1308): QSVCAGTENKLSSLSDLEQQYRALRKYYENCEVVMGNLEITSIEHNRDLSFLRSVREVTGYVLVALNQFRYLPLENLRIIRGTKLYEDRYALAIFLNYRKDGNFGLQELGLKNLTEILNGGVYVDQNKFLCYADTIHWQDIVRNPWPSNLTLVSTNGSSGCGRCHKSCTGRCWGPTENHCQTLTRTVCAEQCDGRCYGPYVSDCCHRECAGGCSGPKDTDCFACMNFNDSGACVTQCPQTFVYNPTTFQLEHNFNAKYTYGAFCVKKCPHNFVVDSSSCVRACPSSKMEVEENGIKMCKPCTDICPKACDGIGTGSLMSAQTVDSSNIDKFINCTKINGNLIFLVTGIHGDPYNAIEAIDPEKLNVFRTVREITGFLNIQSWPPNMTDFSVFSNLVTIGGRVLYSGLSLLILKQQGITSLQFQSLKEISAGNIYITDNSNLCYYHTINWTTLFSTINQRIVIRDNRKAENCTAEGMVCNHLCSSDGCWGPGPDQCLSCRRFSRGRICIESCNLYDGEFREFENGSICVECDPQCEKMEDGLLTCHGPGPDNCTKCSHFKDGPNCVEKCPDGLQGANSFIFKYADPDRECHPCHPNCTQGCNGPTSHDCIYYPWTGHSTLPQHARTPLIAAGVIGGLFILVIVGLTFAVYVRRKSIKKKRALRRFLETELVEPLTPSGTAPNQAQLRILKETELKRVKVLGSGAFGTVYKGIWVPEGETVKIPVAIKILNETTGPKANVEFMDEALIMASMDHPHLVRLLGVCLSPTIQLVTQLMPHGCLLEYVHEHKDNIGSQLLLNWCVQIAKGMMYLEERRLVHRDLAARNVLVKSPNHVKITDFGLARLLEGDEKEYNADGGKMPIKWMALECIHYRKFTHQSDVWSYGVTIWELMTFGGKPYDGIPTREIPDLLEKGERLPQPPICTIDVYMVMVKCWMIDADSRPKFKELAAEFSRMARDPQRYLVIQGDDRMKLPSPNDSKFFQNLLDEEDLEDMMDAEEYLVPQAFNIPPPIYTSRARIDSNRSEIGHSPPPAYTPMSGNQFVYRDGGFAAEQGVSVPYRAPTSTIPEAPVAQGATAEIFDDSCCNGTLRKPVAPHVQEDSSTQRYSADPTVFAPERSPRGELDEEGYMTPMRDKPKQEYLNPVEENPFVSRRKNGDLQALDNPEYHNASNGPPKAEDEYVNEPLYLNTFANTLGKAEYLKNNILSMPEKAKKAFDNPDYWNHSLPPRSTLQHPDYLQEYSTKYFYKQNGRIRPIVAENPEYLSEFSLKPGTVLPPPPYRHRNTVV
EGFR (h), sequence (P00533 25-1210): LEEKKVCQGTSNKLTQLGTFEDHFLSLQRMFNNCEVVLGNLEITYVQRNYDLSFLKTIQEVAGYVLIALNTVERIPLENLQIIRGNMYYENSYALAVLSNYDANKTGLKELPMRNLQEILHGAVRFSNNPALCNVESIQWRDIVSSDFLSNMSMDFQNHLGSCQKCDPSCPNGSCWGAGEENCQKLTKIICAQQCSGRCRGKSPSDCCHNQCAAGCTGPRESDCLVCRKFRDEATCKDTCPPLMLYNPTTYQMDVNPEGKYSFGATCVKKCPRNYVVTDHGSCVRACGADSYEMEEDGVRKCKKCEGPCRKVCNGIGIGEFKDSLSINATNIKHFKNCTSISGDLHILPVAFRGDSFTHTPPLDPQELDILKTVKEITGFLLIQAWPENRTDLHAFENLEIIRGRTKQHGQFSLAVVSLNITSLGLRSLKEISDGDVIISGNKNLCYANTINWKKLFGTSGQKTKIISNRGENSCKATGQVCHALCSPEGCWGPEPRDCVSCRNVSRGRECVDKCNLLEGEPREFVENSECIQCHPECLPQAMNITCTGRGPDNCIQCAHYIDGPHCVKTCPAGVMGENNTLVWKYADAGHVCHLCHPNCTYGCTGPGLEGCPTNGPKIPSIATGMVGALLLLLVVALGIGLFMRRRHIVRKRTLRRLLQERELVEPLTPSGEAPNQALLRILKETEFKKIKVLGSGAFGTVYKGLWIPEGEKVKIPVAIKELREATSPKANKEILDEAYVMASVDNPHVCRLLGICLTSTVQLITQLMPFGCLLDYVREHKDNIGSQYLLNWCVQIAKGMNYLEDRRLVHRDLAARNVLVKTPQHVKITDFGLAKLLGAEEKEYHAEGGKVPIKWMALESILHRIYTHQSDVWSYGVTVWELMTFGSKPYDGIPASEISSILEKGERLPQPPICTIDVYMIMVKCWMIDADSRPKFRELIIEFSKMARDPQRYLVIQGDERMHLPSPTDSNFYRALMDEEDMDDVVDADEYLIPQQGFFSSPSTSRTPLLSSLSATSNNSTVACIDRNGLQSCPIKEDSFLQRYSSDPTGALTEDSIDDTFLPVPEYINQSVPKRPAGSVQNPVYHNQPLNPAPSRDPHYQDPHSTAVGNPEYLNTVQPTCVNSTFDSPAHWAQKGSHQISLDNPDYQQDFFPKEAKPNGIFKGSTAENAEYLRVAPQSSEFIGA
Yes (h), sequence (P07947 whole entry): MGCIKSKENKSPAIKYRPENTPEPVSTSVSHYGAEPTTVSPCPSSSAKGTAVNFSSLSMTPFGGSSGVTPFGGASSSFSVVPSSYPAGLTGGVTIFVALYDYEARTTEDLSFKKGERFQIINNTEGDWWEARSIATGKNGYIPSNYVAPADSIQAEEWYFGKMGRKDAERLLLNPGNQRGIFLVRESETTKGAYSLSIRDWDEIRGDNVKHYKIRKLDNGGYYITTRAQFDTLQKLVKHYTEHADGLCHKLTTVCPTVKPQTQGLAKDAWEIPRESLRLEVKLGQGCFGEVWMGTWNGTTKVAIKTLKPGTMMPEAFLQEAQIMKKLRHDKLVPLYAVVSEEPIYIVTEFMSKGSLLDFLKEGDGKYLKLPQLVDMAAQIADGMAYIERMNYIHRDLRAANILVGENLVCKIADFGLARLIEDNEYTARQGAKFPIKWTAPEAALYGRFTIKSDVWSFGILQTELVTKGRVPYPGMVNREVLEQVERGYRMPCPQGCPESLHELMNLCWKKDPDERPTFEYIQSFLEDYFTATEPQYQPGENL
Flt1 human, sequence (P17948 27-1338): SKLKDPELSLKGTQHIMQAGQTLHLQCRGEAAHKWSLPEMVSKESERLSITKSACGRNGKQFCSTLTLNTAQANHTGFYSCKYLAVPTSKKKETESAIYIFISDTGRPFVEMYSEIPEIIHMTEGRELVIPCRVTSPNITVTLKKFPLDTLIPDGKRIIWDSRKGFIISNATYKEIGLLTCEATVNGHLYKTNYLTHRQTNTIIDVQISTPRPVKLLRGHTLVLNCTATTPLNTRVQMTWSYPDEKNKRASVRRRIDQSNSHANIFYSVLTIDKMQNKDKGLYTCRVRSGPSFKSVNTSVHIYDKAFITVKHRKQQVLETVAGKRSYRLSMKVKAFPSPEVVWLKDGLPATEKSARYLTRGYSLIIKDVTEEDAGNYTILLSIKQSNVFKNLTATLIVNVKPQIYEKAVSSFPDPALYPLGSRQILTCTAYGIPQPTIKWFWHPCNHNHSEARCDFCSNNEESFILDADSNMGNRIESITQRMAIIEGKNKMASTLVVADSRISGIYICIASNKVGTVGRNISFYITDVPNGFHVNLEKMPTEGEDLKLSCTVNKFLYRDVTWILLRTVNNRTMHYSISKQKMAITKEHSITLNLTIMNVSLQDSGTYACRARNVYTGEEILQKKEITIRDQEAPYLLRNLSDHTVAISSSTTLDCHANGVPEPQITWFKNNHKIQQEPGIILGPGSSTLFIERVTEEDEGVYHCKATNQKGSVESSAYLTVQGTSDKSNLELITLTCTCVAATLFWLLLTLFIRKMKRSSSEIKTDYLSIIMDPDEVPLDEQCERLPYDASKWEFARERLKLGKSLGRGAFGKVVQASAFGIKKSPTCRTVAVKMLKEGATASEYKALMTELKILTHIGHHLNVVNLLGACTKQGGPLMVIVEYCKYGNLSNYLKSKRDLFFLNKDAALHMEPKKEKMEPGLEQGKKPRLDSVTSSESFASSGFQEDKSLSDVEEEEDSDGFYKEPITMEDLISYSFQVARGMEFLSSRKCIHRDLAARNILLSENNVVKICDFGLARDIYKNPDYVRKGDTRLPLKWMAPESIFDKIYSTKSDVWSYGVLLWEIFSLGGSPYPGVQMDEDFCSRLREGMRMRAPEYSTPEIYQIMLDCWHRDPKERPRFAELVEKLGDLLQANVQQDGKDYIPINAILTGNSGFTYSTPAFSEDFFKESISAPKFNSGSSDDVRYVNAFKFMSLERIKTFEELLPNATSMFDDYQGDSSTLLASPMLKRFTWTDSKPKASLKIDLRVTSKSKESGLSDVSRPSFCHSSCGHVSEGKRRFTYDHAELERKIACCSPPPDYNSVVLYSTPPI

Take `C#Cc1ccc2c(c1)Nc1ncnc3cc(OCCCNCCS(C)(=O)=O)c(cc13)OCCCCCN(C)C2` [Compound 20]: the inhibition at 1 µM in test [1], in test [2], in test [3], in test [4], in test [5] and in test [6] was more than 80% each time.

`CC(=O)NCCN1CCN(CCCOc2cc3ncnc4c3cc2OCCCNC(=O)[C@H](C)N(C)Cc2cc(F)c(Cl)cc2N4)CC1` [Compound 6]: the inhibition at 1 µM in test [7] is more than 80%; in test [3], more than 80%; in test [6] it was 60 to 80%.

With `COc1cc2ncnc3c2cc1OCCCN(CCCN1CCOCC1)C(=O)[C@H](CC(C)C)NC(=O)Cc1ccc(Br)cc1N3` [Int. 25], the inhibition at 1 µM is more than 80% in test [7]; 30 to 60% in test [2]; more than 80% in test [3]; 10 to 30% in test [4]; 30 to 60% in test [5]; 30 to 60% in test [6].

As for `CC(=O)N(CCO)CCCOc1cc2ncnc3c2cc1OCCCNC(=O)[C@H](C)N(C)Cc1cc(F)c(Cl)cc1N3` [Compound 5], the inhibition at 1 µM is more than 80% in test [7]; 10 to 30% in test [1]; 60 to 80% in test [2]; more than 80% in test [3]; 30 to 60% in test [4]; more than 80% in test [5]. In addition, in test [6], the inhibition at 1 µM fell in the range of 10 to 30%.

For `CN1CCCCCOc2cc3c(ncnc3cc2OCCCNC(=O)OC(C)(C)C)Nc2cc(Br)ccc2C1` [Compound 11], the inhibition at 1 µM was more than 80% in test [7]; 10 to 30% in test [1]; more than 80% in test [2]; more than 80% in test [3]; 30 to 60% in test [4]; 30 to 60% in test [5]. The inhibition at 1 µM in test [6] is 10 to 30%.

For `CC(=O)OCCN(C)CCCOc1cc2ncnc3c2cc1OCCCNC(=O)[C@H](C)N(C)Cc1cc(F)c(Cl)cc1N3` [Compound 2], the inhibition at 1 µM in test [7] is more than 80%; in test [1], 10 to 30%; in test [2] it was more than 80%; in test [3] it was more than 80%; in test [4], 30 to 60%; in test [5], more than 80%. Besides, in test [6], the inhibition at 1 µM was 30 to 60%.

Consider `COc1cc2ncnc3c2cc1OCCCN(CCN1CCOCC1)C(=O)CNC(=O)Cc1ccc(Cl)cc1N3` [Compound 15], for which the inhibition at 1 µM was more than 80% in test [7]; 10 to 30% in test [2]; 60 to 80% in test [3]; 10 to 30% in test [4]; 30 to 60% in test [5]; 10 to 30% in test [6].

`CN1CCCCCOc2cc3c(ncnc3cc2OCCCNCCS(C)(=O)=O)Nc2cc(Cl)c(F)cc2C1` [Compound 18]: the inhibition at 1 µM in test [7], in test [3] and in test [6] was more than 80% throughout.

`CN1CCCCCOc2cc3c(ncnc3cc2OC[C@H](O)CNCCOCCO)Nc2cc(Cl)c(F)cc2C1` [Compound 17]: the inhibition at 1 µM in test [7], in test [3] and in test [6] was more than 80% in each case.

Consider `C[C@H]1C(=O)NCCCOc2cc3c(ncnc3cc2OCCCN2CCN(C(=O)OC(C)(C)C)CC2)Nc2cc(Cl)c(F)cc2CN1C` [Int. 16], for which the inhibition at 1 µM in test [7] is more than 80%; in test [1], 10 to 30%; in test [2], more than 80%; in test [4], 60 to 80%; in test [5], more than 80%; in test [6], 10 to 30%.

Take `CC(=O)NCCNCCCOc1cc2ncnc3c2cc1OCCCNC(=O)[C@H](C)N(C)Cc1cc(F)c(Cl)cc1N3` [Compound 4]: the inhibition at 1 µM was more than 80% in test [7]; more than 80% in test [2]; more than 80% in test [3]; 30 to 60% in test [4]; more than 80% in test [5]; 30 to 60% in test [6].

As usually defined, the inhibition is the relative decrease from the control value, in per cent.
